Measured values: patent US20200085789A1, “USE OF A PROTEASOME INHIBITOR FOR THE TREATMENT OF CENTRAL NERVOUS SYSTEM (CNS) CANCERS” (Celgene International II Sàrl, priority 2017, published 2020)

Tests used:
[1] = test system: proteasome (CT-L, T-L and C-L activity); assay: Blood proteasome inhibition (CT-L, T-L, C-L activity in packed whole blood and PBMC lysates); type: in vivo, human; conditions: for % C-L inhibition / % CT-L inhibition / % T-L inhibition: PWB, post-Marizomib infusion (peak effect)
Text: The drugs were infused on 28-Day Cycles.
Change in proteasome activities in packed whole blood (PWB) lysates and peripheral blood mononuclear cell (PBMC) lysates, comparing pre-drug and post drug levels on Days 1, 8, and 15 of Cycle 1; Days 1 and 15 of each Cycle thereafter; and at the End-of Treatment Visit.
The laboratory correlates include assessment of the percentage inhibition of proteasome function (evaluated by measurement of CT-L, T-L and C-L activity in blood isolates such as whole blood and PBMC lysates.
PD analysis will include change in proteasome activities (whole blood lysates and PBMC lysates) by comparing pre-drug and post drug levels on Days 1, 8, and 15 (i.e., for each dose) of Cycle 1 and Days 1 and 15 (i.e., for the first and last doses) of each cycle thereafter.

[2] = test system: WHO Grade IV malignant glioma; assay: Tumor response by RANO criteria, MRZ ± BEV in recurrent grade IV malignant glioma patients; type: in vivo, human; conditions: for Best Response CR (0), patients / Best Response PD (19), patients / Best Response PR (1), patients / Best Response SD (8), patients: Monotherapy ITT; for SPD: Monotherapy
Method: Tumor response was measured every other cycle by RANO criteria.
The drugs were infused on 28-Day Cycles. Tumor response is assessed every other cycle by RANO criteria.
Assessment will include MRI scans at the end of every even numbered cycle (±7 days) using RANO 2010 criteria for assessment.

[3] = Phase 2 monotherapy, of 30 patients

Compound: C[C@@]12OC(=O)[C@]1([C@@H](O)[C@@H]1C=CCCC1)NC(=O)[C@@H]2CCCl [MRZ, marizomib]
- % C-L inhibition ([1]; 0.7 mg/m^2): 50.4 ± 9.1 (3) %
- % CT-L inhibition ([1]; 0.7 mg/m^2): 100 ± 0 (3) %
- % T-L inhibition ([1]; 0.7 mg/m^2): 77.3 ± 10.5 (3) %
- % C-L inhibition ([1]; 0.8 mg/m^2): 51.9 ± 8.3 (3) %
- % CT-L inhibition ([1]; 0.8 mg/m^2): 100 ± 0 (3) %
- % T-L inhibition ([1]; 0.8 mg/m^2): 69.3 ± 7.2 (3) %
- Proteasome inhibition on chymotrypsin-like (CT-L) domains ([1]; cohorts 1 and 2): maximal
- trypsin-like (T-L) and caspase-like (C-L) activity ([1]; cohorts 1 vs 2): Dose-dependent inhibition
- Best Response CR (0), patients ([2]; Methylated N = 7): 0
- Best Response PD (19), patients ([2]; Methylated N = 7): 4
- Best Response PR (1), patients ([2]; Methylated N = 7): 0
- Best Response SD (8), patients ([2]; Methylated N = 7): 3
- Best Response CR (0), patients ([2]; Unknown N = 5): 0
- Best Response PD (19), patients ([2]; Unknown N = 5): 3
- Best Response PR (1), patients ([2]; Unknown N = 5): 0
- Best Response SD (8), patients ([2]; Unknown N = 5): 1
- Best Response CR (0), patients ([2]; Unmethylated N = 18): 0
- Best Response PD (19), patients ([2]; Unmethylated N = 18): 12
- Best Response PR (1), patients ([2]; Unmethylated N = 18): 1
- Best Response SD (8), patients ([2]; Unmethylated N = 18): 4
- SPD ([2]; Pt 0511, Screening SPD 703.47): 231.3
- SPD ([2]; Pt 0515, Screening SPD 199.6): 259.5
- SPD ([2]; Pt 0521, Screening SPD 836.44): 832.82
- overall response rate ([2]; Phase 2 monotherapy 0.8 mg/m^2, 30 patients): 3%
- partial response, patients [2, 3]: 1
- progressive disease, patients [2, 3]: 19
- disease course in most patients ([2]; marizomib alone): rapid progression
